GI50 and TGI data for 14 compounds are collected here from PubChem BioAssay (NCI).

SMILES strings stand for the structures.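 1) Cells in 96-well plates. 2) Compound, 48 h, 5 concentrations. 3) Linear interpolation between surrounding doses. 4) Unreached endpoint = highest concentration. Abbreviation: GI50, concentration required for 50% inhibition of growth. TGI marks complete inhibition of growth.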 Some results are limits rather than exact numbers.

Among the test systems are NCI-H226 lung; HL-60(TB) leukemia; A498 renal; MALME-3M melanoma; SK-OV-3 ovarian; OVCAR-4 ovarian; NCI-H522 lung; SK-MEL-5 melanoma; M14 melanoma; SF-295 CNS.
Assay in all cases: inhibition of tumour cell growth, NCI panel, 48 h

Consider `O=C1Nc2c(ccc(Cl)c2Cl)/C1=C\c1cc(C(F)(F)F)cc(C(F)(F)F)c1`, for which the GI50 in the experiment with NCI-H226 lung was 5.48 µM; in the experiment on HL-60(TB) leukemia it was 1.13 µM; with A498 renal, 5.59 µM; in the experiment on MALME-3M melanoma, 0.795 µM; in the experiment on SK-OV-3 ovarian, 9.28 µM; in the experiment on OVCAR-4 ovarian, 1.81 µM. In addition, the GI50 was 1.54 µM with NCI-H522 lung, 2.67 µM with SK-MEL-5 melanoma, 5.06 µM in the experiment with M14 melanoma and 1.92 µM in the experiment with SF-295 CNS. Also, the TGI in the experiment on NCI-H226 lung is 13.7 µM; with HL-60(TB) leukemia, 2.37 µM; with A498 renal it was 13.6 µM; with MALME-3M melanoma it was 8.91 µM; in the experiment with SK-OV-3 ovarian, 27.2 µM; in the experiment on OVCAR-4 ovarian, 7.66 µM. In addition, the TGI with NCI-H522 lung was determined as 6.47 µM; with SK-MEL-5 melanoma it was 8.45 µM; in the experiment on M14 melanoma, 11.3 µM; in the experiment on SF-295 CNS, 8.02 µM.
Regarding `COc1c(OC)c(OC)c(-c2cc(=O)c3c(OC)c(OC)c(OC)c(OC)c3o2)c(OC)c1OC`, the TGI in the experiment with NCI-H226 lung was above 100 µM; with HL-60(TB) leukemia it was above 100 µM; in the experiment on A498 renal, 89.1 µM; in the experiment with MALME-3M melanoma, above 100 µM; in the experiment on SK-OV-3 ovarian, above 100 µM; in the experiment with OVCAR-4 ovarian it was 33.7 µM. In addition, the TGI in the experiment with NCI-H522 lung was 33.8 µM; in the experiment with SK-MEL-5 melanoma, 74.9 µM; in the experiment on M14 melanoma, above 100 µM; in the experiment on SF-295 CNS, above 100 µM.
For the compound `COc1ccc(Nc2ncccc2C(=O)NCc2cn(Cc3cccc(Oc4ccccc4)c3)nn2)c(OC)c1`, the GI50 was 2.72 µM in the experiment on NCI-H226 lung; 2.55 µM in the experiment with HL-60(TB) leukemia; 1.33 µM with A498 renal; 6.21 µM in the experiment on MALME-3M melanoma; 2.13 µM in the experiment on SK-OV-3 ovarian; 5.27 µM with OVCAR-4 ovarian. Moreover, the GI50 in the experiment on NCI-H522 lung was 1.44 µM; with SK-MEL-5 melanoma it was 0.635 µM; with M14 melanoma, 1.37 µM; in the experiment with SF-295 CNS, 0.552 µM. Further, the TGI is above 26.7 µM in the experiment with NCI-H226 lung; above 22.7 µM with HL-60(TB) leukemia; 13 µM in the experiment with A498 renal; above 100 µM in the experiment with MALME-3M melanoma; above 30.1 µM in the experiment with SK-OV-3 ovarian; above 100 µM in the experiment on OVCAR-4 ovarian. The TGI is 6.46 µM in the experiment with NCI-H522 lung, 7.93 µM in the experiment on SK-MEL-5 melanoma, above 100 µM in the experiment on M14 melanoma and 22.2 µM in the experiment on SF-295 CNS.
With `O=c1sc(-c2nc3ccccc3[nH]2)c(/N=C/c2ccccc2)n1-c1ccccc1`, the TGI in the experiment with NCI-H226 lung was 38.3 µM; in the experiment on HL-60(TB) leukemia it was above 100 µM; with A498 renal, above 100 µM; with MALME-3M melanoma, above 100 µM; in the experiment with SK-OV-3 ovarian it was 89.1 µM; with OVCAR-4 ovarian, 26.7 µM. Besides, the TGI with NCI-H522 lung, in the experiment with SK-MEL-5 melanoma, in the experiment with M14 melanoma and in the experiment with SF-295 CNS was above 100 µM throughout.
As for `COc1cc([C@@H]2c3cc4c(cc3[C@@H](NC(=O)c3ccc(OC(C)=O)cc3)C3COC(=O)[C@@H]32)OCO4)cc(OC)c1O` (stereo not given in full), the TGI with NCI-H226 lung was 4.46 µM; in the experiment with HL-60(TB) leukemia, 0.688 µM; in the experiment on A498 renal it was 8.75 µM; with MALME-3M melanoma, 11.1 µM; in the experiment on SK-OV-3 ovarian, 7.88 µM; in the experiment on OVCAR-4 ovarian it was above 100 µM. For the same compound, the TGI is 4.37 µM with NCI-H522 lung, 13.2 µM with SK-MEL-5 melanoma, 9.22 µM with M14 melanoma and 50.9 µM with SF-295 CNS.
As for `Cc1nc2cc(Nc3nc(Nc4ccc(F)cc4)nc(N4CCCC4)n3)ccc2n1Cc1ccccc1`, the GI50 is 1.9 µM in the experiment with NCI-H226 lung; 2.58 µM in the experiment with HL-60(TB) leukemia; 1.45 µM in the experiment with A498 renal; 1.61 µM with MALME-3M melanoma; 2.18 µM in the experiment with SK-OV-3 ovarian; 1.62 µM in the experiment on OVCAR-4 ovarian. Also, the GI50 in the experiment with NCI-H522 lung is 1.69 µM; in the experiment with SK-MEL-5 melanoma it was 1.66 µM; in the experiment with M14 melanoma, 2.06 µM; in the experiment on SF-295 CNS, 2.15 µM. Also, the TGI in the experiment on NCI-H226 lung was 4.29 µM; with HL-60(TB) leukemia, 5.3 µM; with A498 renal, 3.24 µM; with MALME-3M melanoma, 3.17 µM; with SK-OV-3 ovarian it was 5.2 µM; in the experiment on OVCAR-4 ovarian it was 4 µM. Also, the TGI in the experiment on NCI-H522 lung amounted to 4.07 µM; in the experiment on SK-MEL-5 melanoma it was 3.09 µM; in the experiment with M14 melanoma, 4.29 µM; with SF-295 CNS it was 4.78 µM.
As for `c1cnc2nc3n(c2c1)CSC3`, the TGI in the experiment with NCI-H226 lung, in the experiment with HL-60(TB) leukemia, with A498 renal, in the experiment with MALME-3M melanoma, with SK-OV-3 ovarian and with OVCAR-4 ovarian was above 100 µM each time. Also, the TGI in the experiment on NCI-H522 lung, in the experiment with SK-MEL-5 melanoma, in the experiment on M14 melanoma and in the experiment with SF-295 CNS was above 100 µM in each case.
As for `O=C1CCCCCCCCCCOC(=O)CCCCCCCCCCO1`, the TGI in the experiment on NCI-H226 lung was above 100 µM; in the experiment with HL-60(TB) leukemia, 44.8 µM; in the experiment on A498 renal, above 100 µM; in the experiment with MALME-3M melanoma, above 100 µM; in the experiment on SK-OV-3 ovarian, above 100 µM; in the experiment on OVCAR-4 ovarian it was above 100 µM. The TGI in the experiment on NCI-H522 lung, in the experiment with SK-MEL-5 melanoma, with M14 melanoma and in the experiment with SF-295 CNS was above 100 µM throughout.
Turning to `O=C1NC(Cc2ccccc2)C(=O)N2CCCC12` (stereo not given), the TGI in the experiment with NCI-H226 lung, in the experiment on HL-60(TB) leukemia, with A498 renal, with MALME-3M melanoma, with SK-OV-3 ovarian and in the experiment with OVCAR-4 ovarian was above 100 µM in each case. The TGI with NCI-H522 lung, with SK-MEL-5 melanoma, in the experiment on M14 melanoma and in the experiment with SF-295 CNS was above 100 µM each time.
Regarding `COC1/C=C/OC2(C)Oc3c(C)c(O)c4c(O)c(c(C=NOC(c5ccccc5)c5ccccc5)c(O)c4c3C2=O)NC(=O)/C(C)=C/C=C/C(C)C(O)C(C)C(O)C(C)C(OC(C)=O)C1C` (stereo not given), the GI50 in the experiment on NCI-H226 lung was 1.74 µM; in the experiment on HL-60(TB) leukemia, 1.84 µM; in the experiment on A498 renal it was 1.18 µM; in the experiment on MALME-3M melanoma, 1.19 µM; with SK-OV-3 ovarian it was 1.88 µM; in the experiment with OVCAR-4 ovarian, 1.63 µM. The GI50 with NCI-H522 lung was 1.18 µM; in the experiment with SK-MEL-5 melanoma it was 0.805 µM; in the experiment on M14 melanoma it was 1.18 µM; in the experiment on SF-295 CNS, 1.21 µM. Further, the TGI came to 8.76 µM with NCI-H226 lung; 3.83 µM with HL-60(TB) leukemia; 4.6 µM with A498 renal; 3.38 µM in the experiment with MALME-3M melanoma; 6.67 µM with SK-OV-3 ovarian; 6.01 µM with OVCAR-4 ovarian. Moreover, the TGI in the experiment on NCI-H522 lung was found to be 3.97 µM; in the experiment with SK-MEL-5 melanoma it was 1.52 µM; in the experiment with M14 melanoma, 2.82 µM; with SF-295 CNS, 3.57 µM.
For the compound `Nc1nc(Cl)nc2c1ncn2C1OC(CO)C(O)C1O` (stereo not given), the GI50 with NCI-H226 lung was above 100 µM; with HL-60(TB) leukemia, 0.374 µM; in the experiment on A498 renal, above 64.4 µM; with MALME-3M melanoma, above 100 µM; in the experiment on SK-OV-3 ovarian it was 7.5 µM; in the experiment on OVCAR-4 ovarian it was above 100 µM. Further, the GI50 with NCI-H522 lung was above 100 µM; in the experiment on SK-MEL-5 melanoma it was 2.89 µM; in the experiment on M14 melanoma, 0.999 µM; with SF-295 CNS, above 100 µM. Also, the TGI is above 100 µM with NCI-H226 lung; above 93.6 µM in the experiment on HL-60(TB) leukemia; above 100 µM in the experiment with A498 renal; above 100 µM with MALME-3M melanoma; above 100 µM in the experiment on SK-OV-3 ovarian; above 100 µM in the experiment with OVCAR-4 ovarian. Moreover, the TGI with NCI-H522 lung was above 100 µM; with SK-MEL-5 melanoma, above 100 µM; with M14 melanoma it was 4.2 µM; in the experiment on SF-295 CNS, above 100 µM.
In the case of `O=[P+](O)c1cccnc1`, the TGI with NCI-H226 lung, in the experiment with HL-60(TB) leukemia, with A498 renal, in the experiment with MALME-3M melanoma, in the experiment with SK-OV-3 ovarian and in the experiment on OVCAR-4 ovarian was above 100 µM throughout. Further, the TGI in the experiment with NCI-H522 lung, in the experiment with SK-MEL-5 melanoma, in the experiment with M14 melanoma and in the experiment with SF-295 CNS was above 100 µM in each case.
Turning to `COC(=O)C1=Cc2cn(S(=O)(=O)c3ccc(C)cc3)c3cccc(c23)C(C=C(C)C)N1C(C)=O` (stereo not given), the TGI was above 100 µM in the experiment on NCI-H226 lung; 41.2 µM with HL-60(TB) leukemia; above 100 µM with A498 renal; 64.6 µM in the experiment with MALME-3M melanoma; above 100 µM in the experiment with SK-OV-3 ovarian; above 100 µM in the experiment on OVCAR-4 ovarian. The TGI is 20 µM in the experiment on NCI-H522 lung, above 100 µM in the experiment with SK-MEL-5 melanoma, above 100 µM with M14 melanoma and above 100 µM in the experiment on SF-295 CNS.
Turning to `O=C(Nc1ccc(Cl)cc1)c1cc2ccccc2cc1OP(=O)(O)O`, the GI50 with NCI-H226 lung was 2.97 µM; in the experiment with HL-60(TB) leukemia, above 100 µM; in the experiment with A498 renal, 2.79 µM; in the experiment on MALME-3M melanoma it was 1.91 µM; with SK-OV-3 ovarian, 2.51 µM; in the experiment with OVCAR-4 ovarian, 4.88 µM. For the same compound, the GI50 in the experiment on NCI-H522 lung is 3.29 µM; in the experiment with SK-MEL-5 melanoma it was 2.89 µM; in the experiment on M14 melanoma, 3.74 µM; in the experiment with SF-295 CNS, 8.6 µM. The TGI with NCI-H226 lung is 16.9 µM; in the experiment on HL-60(TB) leukemia, above 100 µM; in the experiment on A498 renal, 19.4 µM; in the experiment with MALME-3M melanoma, 7.3 µM; in the experiment with SK-OV-3 ovarian it was 16.9 µM; in the experiment on OVCAR-4 ovarian, above 100 µM. The TGI with NCI-H522 lung was found to be 38.1 µM; with SK-MEL-5 melanoma it was 8.83 µM; with M14 melanoma, 56.6 µM; in the experiment with SF-295 CNS it was 31.9 µM.
